Test results: patent EP1712550A2, “Substituted triazole diamine derivatives as kinase inhibitors” (priority 2000, dated 2002)

Assays:
[1] = system: HeLa cervical adenocarcinoma; assay: Inhibition of Cell Proliferation, 14C-thymidine incorporation, HeLa; type: cell-based; settings: Homo sapiens; Cell Line HeLa
Protocol: (§1) The ability of a test compound to inhibit the proliferation of cell growth was determined by measuring incorporation of ^14C-labelled thymidine into newly synthesized DNA within the cells. This method was used on cell lines derived from carcinomas originating from several tissues such as HeLa cervical adenocarcinoma (American Type Culture Collection (ATCC), Virginia, Cat. #CCL-2), A375 malignant melanoma (ATCC CRL-1619), SK-OV-3 ovarian adenocarcinoma (ATCC HTB-77) HCT-116 colon carcinoma (CCL-247), PC-3 prostate adenocarcinoma (ATCC CRL-1435), and MDA-MB-231 (Xenogen Corp.) In this way the effect of a compound on cell growth of cells with many different phenotypes can be determined. Cells were trypsinized and counted and 3000-8000 cells were added to each well of a 96-well CytoStar tissue culture treated scintillating microplate (Amersham #RPNQ0160) in complete medium in a volume of 100 µl. Cells were incubated for 24 hours in complete medium at 37°C in an atmosphere containing 5% CO2. Next, 1 µl of test compound in 100% DMSO was added to the wells of the plate. DMSO only was added to control wells. Cells were incubated for 24 more hours in complete medium at 37°C in an atmosphere containing 5% CO2. Methyl^14C-thymidine 56 mCi/mmol (NEN #NEC568 or Amersham #CFA532) was diluted in complete medium and 0.2 uCi/well was added to each well of the CytoStar plate in a volume of 20 ul. The plate was incubated for 24 hours at 37°C plus 5% CO2 in drug plus ^14C-thymidine. The contents of the plate were discarded into a ^14C radioactive waste container by inverting the plate and the plate was washed twice with 200 µl PBS. 200 µl of PBS is added to each well. The top of the plate was sealed with a transparent plate sealer and a white plate backing sealer (Packard #6005199) was applied to the bottom of the plate. The degree of methyl ^14C-thymidine incorporation was quantified on a Packard Top Count.

[2] = system: PC-3 prostate adenocarcinoma; assay: Inhibition of Cell Proliferation, 14C-thymidine incorporation, PC-3; type: cell-based; settings: Cell Line PC-3
Protocol: as §1

[3] = target: T1, EGFR (epidermal growth factor receptor) (Homo sapiens, UniProt P00533); assay: Kinase Selectivity Assay EGF-R; type: biochemical; settings: Kinase Selectivity, Table 2; read-out: EGF-R IC50
T1 construct: is purified from human A431 cell membranes (Sigma, St. Louis, MO, Cat.# E3641); purchased Sigma, St. Louis, MO E3641; host or cells: human A431 cell membranes (endogenous protein)
T1 sequence (P00533 25-1210): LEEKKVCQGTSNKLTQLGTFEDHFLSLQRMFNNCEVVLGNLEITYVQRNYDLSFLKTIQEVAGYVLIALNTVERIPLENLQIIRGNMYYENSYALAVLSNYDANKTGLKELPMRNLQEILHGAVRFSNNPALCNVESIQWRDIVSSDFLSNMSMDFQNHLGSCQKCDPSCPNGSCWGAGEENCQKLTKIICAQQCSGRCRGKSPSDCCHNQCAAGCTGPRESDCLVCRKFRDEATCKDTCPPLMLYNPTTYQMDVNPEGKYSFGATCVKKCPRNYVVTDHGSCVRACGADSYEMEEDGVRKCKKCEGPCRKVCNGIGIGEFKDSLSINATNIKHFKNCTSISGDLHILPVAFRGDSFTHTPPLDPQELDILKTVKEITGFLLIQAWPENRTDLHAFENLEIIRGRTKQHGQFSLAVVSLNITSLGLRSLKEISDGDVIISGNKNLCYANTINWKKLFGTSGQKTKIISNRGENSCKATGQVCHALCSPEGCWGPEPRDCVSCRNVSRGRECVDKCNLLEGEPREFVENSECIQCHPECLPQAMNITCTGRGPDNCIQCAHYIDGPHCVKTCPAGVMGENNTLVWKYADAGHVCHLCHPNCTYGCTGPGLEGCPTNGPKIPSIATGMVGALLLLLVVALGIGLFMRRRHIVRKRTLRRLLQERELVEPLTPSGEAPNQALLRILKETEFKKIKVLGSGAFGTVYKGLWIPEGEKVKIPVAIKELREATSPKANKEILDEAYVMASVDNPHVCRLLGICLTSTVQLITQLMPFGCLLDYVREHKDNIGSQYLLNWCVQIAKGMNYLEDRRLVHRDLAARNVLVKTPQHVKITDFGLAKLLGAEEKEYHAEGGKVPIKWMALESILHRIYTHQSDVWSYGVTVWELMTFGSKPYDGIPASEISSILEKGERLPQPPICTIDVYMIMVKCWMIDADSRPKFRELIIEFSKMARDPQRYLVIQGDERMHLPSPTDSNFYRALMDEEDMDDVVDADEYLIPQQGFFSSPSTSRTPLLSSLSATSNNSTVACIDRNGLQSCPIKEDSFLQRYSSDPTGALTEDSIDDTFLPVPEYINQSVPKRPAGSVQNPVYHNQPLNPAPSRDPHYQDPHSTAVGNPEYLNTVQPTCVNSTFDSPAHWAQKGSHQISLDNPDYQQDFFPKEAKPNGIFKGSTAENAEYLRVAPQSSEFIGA

MDA-MB-231 = assay: Inhibition of Cell Proliferation, 14C-thymidine incorporation, MDA-MB-231; type: cell-based; settings: Homo sapiens; Cell Line MDA-MB-231
Protocol: The ability of a test compound to inhibit the proliferation of cell growth was determined by measuring incorporation of ^14C-labelled thymidine into newly synthesized DNA within the cells. […] Cells were trypsinized and counted and 3000-8000 cells were added to each well of a 96-well CytoStar tissue culture treated scintillating microplate (Amersham #RPNQ0160) in complete medium in a volume of 100 µl. Cells were incubated for 24 hours in complete medium at 37°C in an atmosphere containing 5% CO2. Next, 1 µl of test compound in 100% DMSO was added to the wells of the plate. DMSO only was added to control wells. Cells were incubated for 24 more hours in complete medium at 37°C in an atmosphere containing 5% CO2. […] The plate was incubated for 24 hours at 37°C plus 5% CO2 in drug plus ^14C-thymidine. The contents of the plate were discarded into a ^14C radioactive waste container by inverting the plate and the plate was washed twice with 200 µl PBS. 200 µl of PBS is added to each well. […] The degree of methyl ^14C-thymidine incorporation was quantified on a Packard Top Count.

HCT-116 colon carcinoma = assay: Inhibition of Cell Proliferation, 14C-thymidine incorporation, HCT-116; type: cell-based; settings: Homo sapiens; Cell Line HCT-116
Protocol: as §1

Cc1cc(C)c(C(=O)n2nc(Nc3ccc(S(N)(=O)=O)cc3)nc2N)s1 [Cpd 33, 4-[[5-amino-1-[(3,5-dimethyl-2-thienyl)carbonyl]-1H-1,2,4-triazol-3-yl]amino]-benzenesulfonamide]
IC50 [1]: 72 nM
IC50 [2]: 37 nM
IC50 [3]: > 100 µM
IC50 (MDA-MB-231): 171 nM
IC50 (HCT-116 colon carcinoma): 27 nM
